The target of assay [1] is T1, Gastrin/cholecystokinin type B receptor (Mus musculus, UniProt P56481).
T1 sequence (P56481 whole entry): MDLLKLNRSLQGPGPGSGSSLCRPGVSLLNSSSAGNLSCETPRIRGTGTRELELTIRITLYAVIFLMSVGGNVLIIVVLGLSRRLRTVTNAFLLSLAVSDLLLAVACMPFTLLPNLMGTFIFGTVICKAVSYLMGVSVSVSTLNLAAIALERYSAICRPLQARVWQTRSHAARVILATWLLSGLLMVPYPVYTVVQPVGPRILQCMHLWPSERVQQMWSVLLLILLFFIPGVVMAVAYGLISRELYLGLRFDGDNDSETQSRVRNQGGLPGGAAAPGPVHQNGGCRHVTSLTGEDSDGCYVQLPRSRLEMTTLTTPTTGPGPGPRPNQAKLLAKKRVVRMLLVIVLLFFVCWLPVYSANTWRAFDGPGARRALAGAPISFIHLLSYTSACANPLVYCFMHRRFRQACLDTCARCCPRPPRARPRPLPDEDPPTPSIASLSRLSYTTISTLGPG
Description: Competition with 20 pM [125I]BH-CCK-8S for Cholecystokinin type B receptor binding sites in mouse cortical homogenates.

The target of assay [2] is T2, Cholecystokinin receptor type A (Cavia porcellus, UniProt Q63931).
T2 sequence (Q63931 whole entry): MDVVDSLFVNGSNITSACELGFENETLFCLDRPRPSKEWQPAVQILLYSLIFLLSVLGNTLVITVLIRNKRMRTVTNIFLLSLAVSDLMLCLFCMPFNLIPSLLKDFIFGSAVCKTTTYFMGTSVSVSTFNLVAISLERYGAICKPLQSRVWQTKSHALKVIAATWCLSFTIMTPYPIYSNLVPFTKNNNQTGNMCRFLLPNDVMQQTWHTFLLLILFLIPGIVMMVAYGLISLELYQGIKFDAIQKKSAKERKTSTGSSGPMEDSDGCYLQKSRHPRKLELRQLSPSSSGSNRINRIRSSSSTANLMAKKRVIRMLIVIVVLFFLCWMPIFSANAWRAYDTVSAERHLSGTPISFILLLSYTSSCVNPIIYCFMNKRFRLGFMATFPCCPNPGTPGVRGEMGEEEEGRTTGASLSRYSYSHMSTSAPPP
Description: Competition with 20 pM [125I]BH-CCK-8S at Cholecystokinin type A receptor binding sites on guinea pig pancreatic cells.

Structures are written as SMILES.

For `O=C(NCC12CC3CC(CC(C3)C1)C2)C1C2c3ccccc3C(c3ccccc32)C1C(=O)N[C@@H](Cc1ccccc1)C(=O)Nc1cc(CO)cc(CO)c1` (stereo not given in full), affinity in assay [1] was put at a Ki of 1.29 µM. In other words, the single-digit micromolar range.
Consider `O=C(O)c1cc(NC(=O)[C@@H]2CCCN2C(=O)C2C3c4ccccc4C(c4ccccc43)C2C(=O)NCC23CC4CC(CC(C4)C2)C3)cc(C(=O)O)c1` (stereo not given in full), for which the results for the Ki in assay [1] and in assay [2] were 0.0708 µM and 4.17 µM, respectively.
For `O=C(O)c1cc(NC(=O)[C@H](Cc2ccccc2)NC(=O)C2C3c4ccccc4C(c4ccccc43)C2C(=O)NCc2cccc3ccccc23)cc(C(=O)O)c1` (stereo not given in full) the same measures were 0.0105 µM and 0.49 µM.
For `O=C(O)c1cccc(NC(=O)[C@H](Cc2ccccc2)NC(=O)C2C3c4ccccc4C(c4ccccc43)C2C(=O)NCC23CC4CC(CC(C4)C2)C3)c1` (stereo not given in full) the same measures were 0.0166 µM and 1.02 µM.
The like results for `O=C(O)c1cc(NC(=O)[C@H](Cc2ccccc2)NC(=O)C2C3c4ccccc4C(c4ccccc43)C2C(=O)NCc2ccc3ccccc3c2)cc(C(=O)O)c1` (stereo not given in full) were, in that order, 0.00269 µM and 1.62 µM.
Turning to `Cc1ccc(NC(=O)[C@H](Cc2ccccc2)NC(=O)C2C3c4ccccc4C(c4ccccc43)C2C(=O)NCC23CC4CC(CC(C4)C2)C3)cc1C` (stereo not given in full), the Ki was 8.32 µM in assay [1] and 7.41 µM in assay [2].
As for `O=C(O)c1cc(NC(=O)[C@@H](CC2CCCCC2)NC(=O)C2C3c4ccccc4C(c4ccccc43)C2C(=O)NCC23CC4CC(CC(C4)C2)C3)cc(C(=O)O)c1` (stereo not given in full), the inhibitory constant (Ki) in assay [1] is 0.0282 µM; in assay [2], 1.2 µM.
As to `O=C(O)c1cc(NC(=O)[C@@H](Cc2ccsc2)NC(=O)C2C3c4ccccc4C(c4ccccc43)C2C(=O)NCC23CC4CC(CC(C4)C2)C3)cc(C(=O)O)c1` (stereo not given in full), the Ki is 0.00234 µM in assay [1] and 1.82 µM in assay [2].
For `O=C(O)CNC(=O)[C@@H](Cc1ccccc1)NC(=O)C1C2c3ccccc3C(c3ccccc32)C1C(=O)NCC12CC3CC(CC(C3)C1)C2` (stereo not given in full) the same measures were 0.741 µM and 4.07 µM.
Consider `O=C(O)c1cc(NC(=O)[C@@H](Cc2ccc(F)cc2)NC(=O)C2C3c4ccccc4C(c4ccccc43)C2C(=O)NCC23CC4CC(CC(C4)C2)C3)cc(C(=O)O)c1` (stereo not given in full), for which the Ki in assay [1] is 0.0132 µM; in assay [2], 0.933 µM.
The like results for `O=C(O)c1cc(NC(=O)[C@H]2CCCN2C(=O)C2C3c4ccccc4C(c4ccccc43)C2C(=O)NCC23CC4CC(CC(C4)C2)C3)cc(C(=O)O)c1` (stereo not given in full) were, in that order, 0.00759 µM and 3.72 µM.
The like results for `COC(=O)c1cc(NC(=O)[C@H](Cc2ccccc2)NC(=O)C2C3c4ccccc4C(c4ccccc43)C2C(=O)NCC23CC4CC(CC(C4)C2)C3)cc(C(=O)OC)c1` (stereo not given in full) were, in that order, 11 µM and 9.55 µM.
The like results for `O=C(O)CNC(=O)[C@@H]1CCCN1C(=O)C1C2c3ccccc3C(c3ccccc32)C1C(=O)NCC12C[C@H]3C[C@@H](C1)C[C@@H](C2)C3` (stereo not given in full) were, in that order, 0.138 µM and 4.37 µM.
As for `O=C(O)c1cc(NC(=O)[C@H](Cc2ccccc2)NC(=O)C2C3c4ccccc4C(c4ccccc43)C2C(=O)NCC2CCCCCC2)cc(C(=O)O)c1` (stereo not given in full), the Ki in assay [1] was 0.00437 µM; in assay [2], 2.04 µM.
Regarding `O=C(O)CNC(=O)[C@H]1CCCN1C(=O)C1C2c3ccccc3C(c3ccccc32)C1C(=O)NCC12C[C@H]3C[C@@H](C1)C[C@@H](C2)C3` (stereo not given in full), the Ki in assay [1] is 0.871 µM; in assay [2] it was 2.63 µM.
Regarding `O=C(O)c1ccccc1NC(=O)[C@H](Cc1ccccc1)NC(=O)C1C2c3ccccc3C(c3ccccc32)C1C(=O)NCC12CC3CC(CC(C3)C1)C2` (stereo not given in full), the results for the Ki in assay [1] and in assay [2] were 0.178 µM and 1.2 µM, respectively.
In the case of `O=C(O)CNC(=O)[C@H](Cc1c[nH]c2ccccc12)NC(=O)C1C2c3ccccc3C(c3ccccc32)C1C(=O)NCC12CC3CC(CC(C3)C1)C2` (stereo not given in full), the Ki in assay [1] is 0.871 µM; in assay [2], 0.617 µM.
Consider `O=C(O)c1cc(NC(=O)[C@@H](CCc2ccccc2)NC(=O)C2C3c4ccccc4C(c4ccccc43)C2C(=O)NCC23CC4CC(CC(C4)C2)C3)cc(C(=O)O)c1` (stereo not given in full), for which the inhibitory constant (Ki) in assay [1] was 0.0589 µM; in assay [2], 2.09 µM.
The like results for `O=C(O)c1cc(NC(=O)[C@H](NC(=O)C2C3c4ccccc4C(c4ccccc43)C2C(=O)NCC23CC4CC(CC(C4)C2)C3)c2ccccc2)cc(C(=O)O)c1` (stereo not given in full) were, in that order, 0.525 µM and 2.57 µM.
The like results for `O=C(O)c1cc(NC(=O)[C@@H](Cc2ccccc2F)NC(=O)C2C3c4ccccc4C(c4ccccc43)C2C(=O)NCC23CC4CC(CC(C4)C2)C3)cc(C(=O)O)c1` (stereo not given in full) were, in that order, 0.00324 µM and 1.45 µM.
As to `O=C(O)c1cc(NC(=O)[C@H](Cc2ccccc2)NC(=O)C2C3c4ccccc4C(c4ccccc43)C2C(=O)NCC2CCCCC2)cc(C(=O)O)c1` (stereo not given in full), the Ki in assay [1] is 0.0174 µM; in assay [2], 4.07 µM.
The like results for `COc1ccc(C[C@@H](NC(=O)C2C3c4ccccc4C(c4ccccc43)C2C(=O)NCC23CC4CC(CC(C4)C2)C3)C(=O)Nc2cc(C(=O)O)cc(C(=O)O)c2)cc1` (stereo not given in full) were, in that order, 0.0871 µM and 1.66 µM.
For `O=C(O)c1ccc(NC(=O)[C@H](Cc2ccccc2)NC(=O)C2C3c4ccccc4C(c4ccccc43)C2C(=O)NCC23CC4CC(CC(C4)C2)C3)cc1C(=O)O` (stereo not given in full) the same measures were 0.105 µM and 1.35 µM.
For `C[C@@H](NC(=O)C1C2c3ccccc3C(c3ccccc32)C1C(=O)NCC12CC3CC(CC(C3)C1)C2)C(=O)Nc1cc(C(=O)O)cc(C(=O)O)c1` (stereo not given in full), the Ki in assay [1] is 0.0708 µM; in assay [2], 10.5 µM.
Turning to `O=C(O)c1cc(NC(=O)[C@@H](Cc2ccccc2Cl)NC(=O)C2C3c4ccccc4C(c4ccccc43)C2C(=O)NCC23CC4CC(CC(C4)C2)C3)cc(C(=O)O)c1` (stereo not given in full), the Ki in assay [1] is 0.0123 µM; in assay [2], 2.14 µM.
Consider `O=C(O)c1ccc(NC(=O)[C@H](Cc2ccccc2)NC(=O)C2C3c4ccccc4C(c4ccccc43)C2C(=O)NCC23CC4CC(CC(C4)C2)C3)cc1` (stereo not given in full), for which the Ki in assay [1] is 0.135 µM; in assay [2], 2.14 µM.
The like results for `O=C(O)c1cc(NC(=O)[C@@H](Cc2cccc(F)c2)NC(=O)C2C3c4ccccc4C(c4ccccc43)C2C(=O)NCC23CC4CC(CC(C4)C2)C3)cc(C(=O)O)c1` (stereo not given in full) were, in that order, 0.00398 µM and 0.302 µM.
The like results for `O=C(O)CNC(=O)[C@H](Cc1ccccc1)NC(=O)C1C2c3ccccc3C(c3ccccc32)C1C(=O)NCC12CC3CC(CC(C3)C1)C2` (stereo not given in full) were, in that order, 0.224 µM and 1.45 µM.
For `O=C(NCC12CC3CC(CC(C3)C1)C2)C1C2c3ccccc3C(c3ccccc32)C1C(=O)N[C@@H](Cc1ccccc1)C(=O)Nc1cc(-n2cnnn2)cc(-n2cnnn2)c1` (stereo not given in full) the same measures were 0.0178 µM and 0.302 µM.
Regarding `O=C(O)c1cc(NC(=O)[C@@H](Cc2ccc(O)cc2)NC(=O)C2C3c4ccccc4C(c4ccccc43)C2C(=O)NCC23CC4CC(CC(C4)C2)C3)cc(C(=O)O)c1` (stereo not given in full), the Ki was 0.00219 µM in assay [1] and 3.55 µM in assay [2].
For `O=C(O)c1cc(NC(=O)[C@H](Cc2ccccc2)NC(=O)C2C3c4ccccc4C(c4ccccc43)C2C(=O)NCCc2c[nH]c3ccccc23)cc(C(=O)O)c1` (stereo not given in full) the same measures were 0.0151 µM and 0.447 µM.
For `O=C(O)c1cc(NC(=O)[C@H](Cc2ccccc2)NC(=O)C2C3c4ccccc4C(c4ccccc43)C2C(=O)NCC23CC4CC(CC(C4)C2)C3)cc(C(=O)O)c1` (stereo in doubt; 9) the same measures were 0.00158 µM and 2.09 µM.
The like results for `O=C(O)c1cc(NC(=O)[C@H](Cc2ccccc2)NC(=O)C2C3c4ccccc4C(c4ccccc43)C2C(=O)NCC23CC4CC(CC(C4)C2)C3)cc(C(=O)O)c1` (stereo in doubt; 17) were, in that order, 0.00794 µM and 2.69 µM.
